Results reported in patent US11952364B2, “TRK inhibitors useful as anticancer drugs” (TYLIGAND BIOSCIENCE (SHANGHAI) LIMITED, priority 2018, dated 2024).
pIC50: −log10 of the molar value.

How the values were obtained:
[1] = Metabolic stability in liver microsomes (overall statement); assay type: in vitro ADME; details: statement in words
Excerpt: According to standard methods conventional in the art for in vitro metabolic stability studies, for example those protocols described in Kems, Edward H. and Di Li (2008). Drug-like Properties: Concepts. Structure Design and Methods: from ADME to Toxicity Optimization. San Diego: Academic Press; Di, Li et al., Optimization of a Higher Throughput Microsomal Stability Screening Assay for Profiling Drug Discovery Candidates, J. Biomol. Screen. 2003, 8(4), 453., the metabolic stability test in liver microsomes of the present compound was performed analogously as follows.
The in vitro metabolic stability of the compound in 5 species (mouse, rat, dog, monkey, and human) was evaluated by liver microsomal stability test. 0.1M potassium phosphate buffer solution (pH 7.4, containing 1.0 mM EDTA) was prepared. The test compound and the control compound were prepared into a 10 mM DMSO solution, and then 10 μL of the 10 mM DMSO compound solution was added to 190 μL of acetonitrile to prepare a 500 μM compound solution. […]
The natural logarithm of the residue percentage at each time point was subjected to linearly regression as a factor of incubation time to obtain Slope k, and then the liver microsome clearance rate (CLint^mic) and in vitro half-life (T½) were calculated according to the following formula: […]

FLT3(ITD) = assay: KINOMEscan competition binding assay; set-up: species or system human; details: 2 μM
Experimental: (§1) The experiment was performed according to the standard kinase activity determination protocol by Eurofins DiscoverX Corporation (11180 Roselle St. Suite D, San Diego, CA, USA, www.discoverX.com). Specifically, the experiment was conducted using the KINOMEscan™ screening platform, which adopts an active site-directed competition binding assay to quantitatively measure the interaction between test compounds and more than hundreds of human kinases and disease-related mutants. The working principle of the screening platform and kinase assay methods are well known in the art, for example, see www.discoverX.com.

P450 3A4 = P450 3A4 (Homo sapiens (Human), UniProt P08684); assay: Cytochrome P450 inhibition in human liver microsomes; assay type: in vitro ADME
Experimental: The test compounds were evaluated by detecting the metabolism of human liver microsomes for the substrates of different subtypes of Cyp450. The liver microsomes (Sekisui XenoTech, LLC., human liver microsomes, cat. #H0610) were slowly melted on ice, and 0.482 mL of the liver microsome solution (20 mg/mL) was added to 30 mL of 100 mM potassium phosphate solution to prepare a liver microsome working solution with a concentration of 0.316 mg/mL. The test compound and specific inhibitors of different Cyp450 subtypes (as a control) were prepared into 10 mM DMSO solutions, and then 20 μL of the 10 mM DMSO compound solution was added to 180 μL of acetonitrile to obtain a 1 mM compound solution. 2 μL of such 1 mM test compound or inhibitor solution was added to 150 μL of 0.316 mg/mL liver microsome working solution to obtain a 13.16 μM compound working solution. 45.3 mg of NADPH (SIGMA, cat. #V900362) was weighted and added into 13.59 mL of deionized water to prepare a 4 mM NADPH aqueous solution. 0.2 mL of 2 mg/mL internal standard stock solution (dexamethasone in acetonitrile) was added to 1000 mL of acetonitrile (SIGMA, cat. #271004) to prepare a reaction stop solution and stored at 4° C. […] The single point IC50 values were calculated according to the following formula. […]

[2] = biological target: kinases listed in Table 10; assay: KINOMEscan kinase panel (kinase profile); assay type: binding, human
Experimental: as §1
The experiment was performed according to the standard kinase activity determination protocol by Eurofins DiscoverX Corporation (11180 Roselle St. Suite D, San Diego, CA USA, www.discoverX.com).

P450 3A4, sequence (P08684 whole entry): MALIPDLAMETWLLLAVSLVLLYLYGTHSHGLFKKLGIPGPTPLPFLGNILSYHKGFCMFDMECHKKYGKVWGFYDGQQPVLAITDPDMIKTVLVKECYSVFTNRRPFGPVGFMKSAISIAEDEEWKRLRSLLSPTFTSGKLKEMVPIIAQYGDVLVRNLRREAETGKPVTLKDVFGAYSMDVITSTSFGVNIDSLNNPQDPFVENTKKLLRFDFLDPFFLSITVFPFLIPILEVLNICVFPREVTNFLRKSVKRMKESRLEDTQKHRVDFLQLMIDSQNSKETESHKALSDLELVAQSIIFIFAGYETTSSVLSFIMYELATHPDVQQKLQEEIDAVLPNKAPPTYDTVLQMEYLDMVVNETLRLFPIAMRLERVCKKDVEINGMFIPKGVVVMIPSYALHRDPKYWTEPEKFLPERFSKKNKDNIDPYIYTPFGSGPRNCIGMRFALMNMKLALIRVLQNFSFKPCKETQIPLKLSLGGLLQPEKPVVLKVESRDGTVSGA

% inhibition (FLT3(ITD)): 98% | pIC50 (P450 3A4): < 5.00 | inhibitory activity on the kinases listed in Table 10 ([2]; concentration of 2 μM): > 90%
Structure (SMILES): COc1ccc(C(=O)Nc2ccc(Oc3cc4cnn(C)c4cc3-c3cn[nH]c3)c(F)c2)c(=O)n1-c1ccc(F)cc1 [Example 12, N-(3-fluoro-4-(1-methyl-6-(1H-pyrazol-4-yl)-1H-indazol-5-yloxy)phenyl)-1-(4-fluorophenyl)-6-methoxy-2-oxo-1,2-dihydropyridine-3-carboxamide]
metabolic stability in liver microsomes compared with Merestinib [1]: significantly improved metabolic stability in liver microsomes | kinase activity profile compared with Merestinib ([2]; 2 μM, FIG. 2, kinases with a difference of inhibition rate >20%): significantly different trend in the kinase activity profile
